Results from patent US7989008B2, “Cosmetic preparations designed to reduce unsightly cellulite” (Menarini Industrie Farmaceutiche Riunite S.R.L., priority 2007, dated 2011).

These molecules were tested on tissue affected by cellulite (surface temperature of the skin) (assay: Liquid-crystal thermography, indirect instrumental assessment of treatment efficacy). Details: after repeated treatment.
Format: in vivo, women
From the text: Liquid-crystal thermography was used to conduct an indirect instrumental assessment of the efficacy of the treatment. On the basis of the surface temperature, this technique distinguishes between normal adipose tissue and tissue affected by cellulite, in which the reduced blood flow causes progressive cooling of the skin, proportional to the severity of the cosmetic problem. After repeated treatment with compound (I), the difference in temperature between the normal skin area (unaffected by cellulite) and the affected area had reduced considerably, about 70% of the temperature reduction previously observed having been eliminated. The effects of treatment with compounds A and B were evaluated for comparison purposes.

Row | Compound | temperature difference between normal skin area and area affected by cellulite eliminated
1 | CC1(C)C(=O)NN=C1c1ccc(NC2=C(Cc3ccc(F)cc3)C(=O)CCC2)c(F)c1F [Compound of formula (I), 5-{4-[2-(4-fluoro-benzyl)-3-oxo-cyclohex-1-enylamine]-2,3-difluoro-phenyl}-4,4-dimethyl-2,4-dihydropyrazol-3-one] | about 70%
2 | CC1(C)C(=O)NN=C1c1ccc(NC2=C(Cc3cccc(C#N)c3)C(=O)CCC2)c(F)c1F [Compound A, 3-[2-[4-(4,4-dimethyl-5-oxo-4,5-dihydro-1-H-pyrazol-3-yl)-2,3-difluoro-phenylamine]-6-oxocyclohex-1-enylmethyl]-benzonitrile] | ~50%
3 | CC1(C)C(=O)NN=C1c1ccc(NC2=C(Cc3ccc(F)cc3)C(=O)CCC2)cc1F [Compound B, 5-{4-[2-(4-fluoro-benzyl)-3-oxo-cyclohex-1-enylamine]-2-fluoro-phenyl}-4,4-dimethyl-2,4-dihydro-pyrazol-3-one] | ~50%
